Legend:
Type in all cases: biochemical
MMP-13 = target: T1, MMP-13 (Homo sapiens, UniProt P45452); assay: Assay for inhibitory activities on MMPs (fluorogenic MOCAc peptide substrate): MMP-13; settings: Table 40
T1 construct: catalytic domain (^104Tyr˜^267Gly) was amplified with RT-PCR; His-tag; enterokinase digestion-site; made in house
Experimental: (§1) In regard to MMP-13, mRNA was prepared from carcinoma cell SW1353 derived from human cartilage stimulate by IL-1, TNF and catalytic domain (^104Tyr˜^267Gly) was amplified with RT-PCR. This was cloned in Escherichia. coli expression vector pTrc99AHE inserted with His-tag sequence and enterokinase digestion-site, induced and expressed by IPTG (Isopropyl-β-D-thiogalactopyranoside) and expressed in a insoluble fraction. Isolation of MMP-13 from an insoluble fraction was carried out by dissolving in modifier (6M urea) by a usual method and purification with metal chelate chromatography (Ni Chelateing Sepharose). And then removing modifier (6M urea) with dialyze and refolding of the enzyme spontaneously gave activated MMP-13.
(§2) The enzymatic activity on MMPs was analyzed by the method described in “C. Graham Knight, Frances Willenbrock and Gillian Murphy: A novel coumarin-labelled peptide for sensitive continuous assays of the matrix metalloproteinases: FEBS LETT., 296, (1992), 263-266”. The substrate: MOCAc-Pro-Leu-Gly-Leu-A2Pr(DNP)-Ala-Arg-NH2 was purchased from Peptide Institute, Inc., Osaka, Japan. The measurement of the inhibitory activities (IC50) was carried out by the following four methods; • (A) Reaction with substrate, enzyme (MMPs) and inhibitor • (B) Reaction with substrate and inhibitor, without enzyme • (C) Reaction with substrate and enzyme (MMPs), without inhibitor • (D) Reaction with substrate only IC50 values were calculated by using the following formula and each fluorescence values of above four methods (A to D).
(§3) The value of inhibitory activity against MMP-2, MMP-8, MMP-9, MMP-12, and MMP-13 measured by above mentioned methods are shown in Table 36, 37, 38, 39, and 40 respectively.

MMP-12 = target: T2, MMP-12 (Homo sapiens, UniProt P39900); assay: Assay for inhibitory activities on MMPs (fluorogenic MOCAc peptide substrate): MMP-12; settings: catalytic domain 100Phe-263Gly
T2 construct: In regard to MMP-12, catalytic domain(^100Phe˜^263Gly) was amplified with RT-PCR; His-tag; enterokinase digestion-site; made in house
Experimental: as §1, with “MMP-12,” for “MMP-13, mRNA was prepared from carcinoma cell SW1353 derived from human cartilage stimulate by IL-1, TNF and”, “domain(^100Phe˜^263Gly)” for “domain (^104Tyr˜^267Gly)”, “RT-PCR from Human Placenta Total RNA.” for “RT-PCR.”, “MMP-12” for “MMP-13”, “dialysis” for “dialyze”, “MMP-12.” for “MMP-13.”
as §2, §3

MMP-8 = target: T3, MMP-8 (Homo sapiens, UniProt P22894); assay: Assay for inhibitory activities on MMPs (fluorogenic MOCAc peptide substrate): MMP-8; settings: catalytic domain 99Phe-262Gly
T3 construct: In regard to MMP-8, catalytic domain (^99Phe˜^262Gly) was amplified with PCR; His-tag; enterokinase digestion-site; made in house
Description: In regard to MMP-8, catalytic domain (^99Phe˜^262Gly) was amplified with PCR using commercial available Human Bone Marrow cDNA. This was cloned in Escherichia. coli expression vector pTrc99AHE inserted with His-tag sequence and enterokinase digestion-site, induced and expressed by IPTG (Isdpropyl-β-D-thiogalactopyranoside) and expressed in a insoluble fraction (Thau F. Ho, M. Walid Qoronfleh, Robert C. Wahl, Trica A. Pulvino, Karen J. Vavra, Joe Falvo, Tracey M. Banks, Patricia G. Brake and Richard B. Ciccarelli: Gene expression, purification and characterization of recombinant human neutrophil collagenase. Gene 146, (1994) 297-301, Prepared by the a improved method of this material). Isolation of MMP-8 from an insoluble fraction was carried out by dissolving in modifier (6M urea) by a usual method and purification with metal chelate chromatography. And then removing modifier (6M urea) with dialysis and refolding of the enzyme spontaneously gave activated MMP-8.
as §2, §3

T3 sequence (P22894 99-262): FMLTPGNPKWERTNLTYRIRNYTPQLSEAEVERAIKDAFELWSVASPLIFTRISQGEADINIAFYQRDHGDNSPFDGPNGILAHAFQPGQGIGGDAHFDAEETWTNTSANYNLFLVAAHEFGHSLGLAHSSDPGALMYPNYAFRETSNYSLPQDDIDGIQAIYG
T2 sequence (P39900 100-263): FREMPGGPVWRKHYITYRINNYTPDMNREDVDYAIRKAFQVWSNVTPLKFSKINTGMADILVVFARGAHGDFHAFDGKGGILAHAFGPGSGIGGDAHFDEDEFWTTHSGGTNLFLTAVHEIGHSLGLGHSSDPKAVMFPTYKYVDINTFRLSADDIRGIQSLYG

| IC50 (MMP-13) [µM] | IC50 (MMP-12) [µM] | IC50 (MMP-8) [µM] | Structure (SMILES) |
| --- | --- | --- | --- |
| 0.000837 | 0.00014 |  | CCC(C)[C@H](NS(=O)(=O)c1ccc(-c2cc(-c3ccc(OC(F)(F)F)cc3)on2)cc1)C(=O)O (stereo partly shown) [Example C-102] |
|  | 0.0008 | 0.00286 | CC(C)C[C@H](NS(=O)(=O)c1ccc(-c2cc(-c3ccc(Cl)s3)on2)cc1)C(=O)O [Example C-79] |
|  | 0.000622 | 0.00111 | COc1ccc(-c2cc(-c3ccc(S(=O)(=O)N[C@@H](CC(C)C)C(=O)O)cc3)on2)cc1F [Example A-79] |
|  | 0.0002 | 0.000892 | CC(C)[C@H](NS(=O)(=O)c1ccc(-c2cc(-c3ccc4c(c3)CCO4)on2)cc1)C(=O)O [Example C-48] |
| 0.000884 | 0.000148 |  | CC(C)[C@H](NS(=O)(=O)c1ccc(-c2cc(-c3ccc(OC(F)(F)F)cc3)on2)cc1)C(=O)O [Example C-26] |
|  | 0.000281 | 0.00489 | CCC(C)[C@H](NS(=O)(=O)c1ccc(-c2cc(-c3ccc(Cl)c(Cl)c3)on2)cc1)C(=O)O (stereo partly shown) [Example C-104] |
|  | 0.000228 | 0.00229 | CCC(C)[C@H](NS(=O)(=O)c1ccc(-c2cc(-c3ccc(OC)cc3)on2)cc1)C(=O)O (stereo partly shown) [Example C-96] |
| 0.000578 | 0.000239 | 0.00421 | CCC(C)[C@H](NS(=O)(=O)c1ccc(-c2cc(-c3ccc(SC)cc3)on2)cc1)C(=O)O (stereo partly shown) [Example C-97] |
| 0.000853 | 0.000384 | 0.00419 | COc1ccc(-c2cc(-c3ccc(S(=O)(=O)N[C@@H](C(=O)O)C(C)C)cc3)no2)cc1 [Example C-18] |
|  | 0.000866 | 0.00177 | CC(C)[C@H](NS(=O)(=O)c1ccc(-c2cc(-c3ccc(Cl)s3)on2)cc1)C(=O)O [Example C-34] |
| 0.000635 | 0.000764 |  | CSCC[C@@H](NS(=O)(=O)c1ccc(-c2cc(-c3ccc(OC(F)(F)F)cc3)no2)cc1)C(=O)O [Example A-108] |
| 0.000702 | 0.000172 |  | CCc1ccc(-c2cc(-c3ccc(S(=O)(=O)N[C@H](C(=O)O)C(C)CC)cc3)no2)cc1 (stereo partly shown) [Example C-95] |
| 0.000758 | 0.000316 |  | CC(C)[C@@H](NS(=O)(=O)c1ccc(-c2cc(-c3ccc(C(F)(F)F)cc3)on2)cc1)C(=O)O [Example C-27] |
| 0.000889 |  |  | CC(C)C[C@@H](NS(=O)(=O)c1ccc(-c2cc(-c3ccc(C(C)C)cc3)on2)cc1)C(=O)O [Example C-59] |
|  | 0.000184 | 0.00437 | CC(C)C[C@H](NS(=O)(=O)c1ccc(-c2cc(-c3ccc(Cl)c(Cl)c3)on2)cc1)C(=O)O [Example C-88] |
| 0.000223 | 0.000578 |  | CCCc1ccc(-c2cc(-c3ccc(S(=O)(=O)N[C@H](CC(=O)O)C(=O)O)cc3)no2)cc1 [Example C-114] |
|  | 0.000545 | 0.00478 | CC(C)C[C@H](NS(=O)(=O)c1ccc(-c2cc(-c3ccc4c(c3)OCO4)on2)cc1)C(=O)O [Example C-86] |
|  | 0.000294 | 0.00379 | CC(C)[C@H](NS(=O)(=O)c1ccc(-c2cc(-c3ccc(Cl)c(Cl)c3)on2)cc1)C(=O)O [Example C-41] |
| 0.000739 | 0.000289 |  | CSc1ccc(-c2cc(-c3ccc(S(=O)(=O)N[C@H](C(=O)O)C(C)C)cc3)no2)cc1 [Example C-11] |
| 0.000658 |  |  | CSCC[C@@H](NS(=O)(=O)c1ccc(-c2cc(-c3ccc(C(C)C)cc3)no2)cc1)C(=O)O [Example A-107] |
| 0.000757 | 0.000201 |  | CCc1ccc(-c2cc(-c3ccc(S(=O)(=O)N[C@H](C(=O)O)C(C)C)cc3)no2)cc1 [Example C-13] |

| IC50 (MMP-13) [µM] | IC50 (MMP-12) [µM] | IC50 (MMP-8) [µM] | Structure (SMILES) |
| --- | --- | --- | --- |
|  | 0.000172 | 0.00433 | CC(C)[C@H](NS(=O)(=O)c1ccc(-c2cc(-c3ccc(Cl)c(F)c3)on2)cc1)C(=O)O [Example C-37] |
| 0.000971 | 0.000649 |  | CCc1ccc(-c2cc(-c3ccc(S(=O)(=O)N[C@H](C(=O)O)C(C)CC)cc3)no2)s1 (stereo partly shown) [Example C-99] |
|  | 0.000264 | 0.00107 | CC(C)[C@@H](NS(=O)(=O)c1ccc(-c2cc(-c3ccc4c(c3)CCO4)on2)cc1)C(=O)O [Example C-47] |
| 0.000403 | 0.000287 |  | CC(C)c1ccc(-c2cc(-c3ccc(S(=O)(=O)N[C@H](C(=O)O)C(C)C)cc3)no2)cc1 [Example C-16] |
|  | 0.000629 | 0.00103 | CCC(C)[C@H](NS(=O)(=O)c1ccc(-c2cc(-c3ccc(C)s3)on2)cc1)C(=O)O (stereo partly shown) [Example C-98] |
| 0.000919 | 0.000335 |  | CC(C)C[C@H](NS(=O)(=O)c1ccc(-c2cc(-c3ccc(C(C)C)cc3)on2)cc1)C(=O)O [Example C-60] |
|  | 0.000649 | 0.00359 | CC(C)[C@@H](NS(=O)(=O)c1ccc(-c2cc(-c3ccc4c(c3)OCO4)on2)cc1)C(=O)O [Example C-44] |
|  | 0.000898 | 0.00397 | COc1ccc(-c2cc(-c3ccc(S(=O)(=O)N[C@@H](C(=O)O)C(C)C)cc3)on2)cc1Cl [Example A-56] |
| 0.000578 | 0.000239 | 0.00421 | CCCCc1ccc(-c2cc(-c3ccc(S(=O)(=O)N[C@@H](C(=O)O)C(C)C)cc3)no2)cc1 [Example C-17] |
| 0.000943 |  |  | CCc1ccc(-c2cc(-c3ccc(S(=O)(=O)N[C@@H](C(=O)O)C(C)C)cc3)on2)cc1 [Example A-26] |
|  | 0.000184 | 0.00108 | CC(C)C[C@H](NS(=O)(=O)c1ccc(-c2cc(-c3ccc4c(c3)CCO4)on2)cc1)C(=O)O [Example C-91] |
| 0.000643 |  |  | O=C(O)C[C@@H](NS(=O)(=O)c1ccc(-c2cc(-c3ccc(C(F)(F)F)cc3)on2)cc1)C(=O)O [Example C-115] |
|  | 0.000677 | 0.00198 | Cc1ccc(-c2cc(-c3ccc(S(=O)(=O)N[C@@H](CC(C)C)C(=O)O)cc3)no2)s1 [Example C-75] |
|  | 0.000758 | 0.00124 | Cc1ccc(-c2cc(-c3ccc(S(=O)(=O)N[C@H](C(=O)O)C(C)C)cc3)no2)s1 [Example C-30] |
|  |  | 0.00416 | Cc1ccc(-c2cc(-c3ccc(S(=O)(=O)N[C@H](CC(C)C)C(=O)O)cc3)no2)s1 [Example C-74] |
| 0.000465 |  |  | CC(C)c1ccc(-c2cc(-c3ccc(S(=O)(=O)N[C@H](Cc4c[nH]c5ccccc45)C(=O)O)cc3)on2)cc1 [Example A-111] |
| 0.000733 |  |  | CCc1ccc(-c2cc(-c3ccc(S(=O)(=O)N[C@H](CC(=O)O)C(=O)O)cc3)no2)cc1 [Example C-113] |
|  | 0.000641 | 0.00366 | CC(C)[C@H](NS(=O)(=O)c1ccc(-c2cc(-c3ccc4c(c3)OCO4)on2)cc1)C(=O)O [Example C-45] |
|  | 0.000447 | 0.00397 | COc1ccc(-c2cc(-c3ccc(S(=O)(=O)N[C@H](C(=O)O)C(C)C)cc3)no2)cc1 [Example C-19] |
| 0.000836 | 0.000266 | 0.00263 | COc1ccc(-c2cc(-c3ccc(S(=O)(=O)N[C@@H](C(=O)O)C(C)C)cc3)no2)cc1F [Example C-51] |

Reference: US7825146B2, “Sulfonamide derivative having isoxazole ring” (Shionogi & Co., Ltd., priority 2003, dated 2010)
